Reference: patent US12030908B2, “Antimicrobial compounds, compositions, and uses thereof” (Lakewood Amedex, Inc., priority 2017, dated 2024)
≈ marks a conversion by molar mass, not a printed value. Like-named read-outs stand apart in the source and are kept apart here.

Key:
pKa measurement = type: physicochemical; settings: read-out: pKa
P. aeruginosa = assay: Broth microdilution MIC at incremental pH, P. aeruginosa; type: cell-based; settings: Pseudomonas aeruginosa, read-out: MIC
Description: (§1) MIC testing is conducted using the broth (Mueller Hinton Broth) microdilution procedures relevant to each organism group as established by the Clinical and Laboratory Standards Institute (CLSI; 3-7). MIC plates are prepared in accordance with CLSI (3-7). To prepare the test plates, automated liquid handlers are used to conduct serial dilutions and liquid transfers. Automated liquid handlers utilized in this study include the Multidrop 384 (Labsystems, Helsinki, Finland) and the Biomek 2000 (Beckman Coulter, Fullerton CA). The solution is diluted to desired pH using 1 M Citric Acid or 1 M NaOH buffer. A standardized inoculum of each test organism is prepared per CLSI methods (3, 5-7) to equal a 0.5 McFarland standard in the appropriate media followed by an additional 1:20 dilution (1:10 for anaerobes).
(§2) The plates are then inoculated with 10 μL of the diluted 0.5 McFarland suspension using the Biomek 2000 from low to high drug concentration, resulting in a final concentration of approximately 5×10^5 CFU/mL per well. An un-inoculated plate is incubated for the purpose of assessing solubility of the drug in the test media. The plates are stacked 3 to 4 high, covered with a sterile lid on the top plate, and incubated for 18 to 24 hours according to CLSI. The MIC is recorded as the lowest concentration of respective compound that inhibited visible growth of the organism.

E. coli = assay: Broth microdilution MIC at incremental pH, E. coli; type: cell-based; settings: Escherichia coli, read-out: MIC
Description: as §1, §2

[1] = system: wild type E. coli (ATCC 25922); assay: Bacterial cytological profiling at pH 4, 5.5, 7 (Example 7), E. coli; type: cell-based; settings: pH 5.5 and 7
Description: (§3) This bacterial cytological profiling (BCP) investigation uses methods and materials described previously by Nonejuie, P., Burkart, M., Poglianoa, K., Pogiano, J. (2013). Bacterial cytological profiling rapidly identifies the cellular pathways targeted by antibacterial molecules. Proc. Natl. Acad. Sci. U.S.A. 110(40):16169-16174. doi: 10.1073/pnas.1311066110.
(§4) For viable cell counts, cells are grown to OD600≈0.4 and diluted 1:1 into buffered or unbuffered media containing various compound concentrations. Samples are then collected and serially diluted (1:10) on a 96 well plate. Five microliters from each well are spotted on LB plates, incubated at 30° C., and viable cells are counted the next day.
(§5) Samples are collected at 10, 30, 120, and 240 min of exposure for viable cell count and imaging. For imaging, E. coli and S. aureus 200 μL of treated cells per time point are stained with 0.8 μg/mL FM4-64, 1.5 μg/mL DAPI, and 0.4 μM SYTOXGreen (Molecular Probes/Invitrogen). P. aeruginosa samples are stained 0.4 μM SYTOX Green, 28 μg/mL DAPI, and 1 μg/mL FM 4-64. Cells are transferred to an agarose pad (20% LB, 1% agarose) for imaging.
(§6) For Nu-3 and Nu-8 stocks (at pH 4, 5.5 and 7), stock concentration is 500 mg/mL. For pH 4, the stocks are prepared by dissolving Nu-3 in 25 mM citrate buffer and Nu-8 in 350 mM citric acid. […]

[2] = system: methicillin susceptible S. aureus (ATCC 29213); assay: Bacterial cytological profiling at pH 4, 5.5, 7 (Example 7), S. aureus; type: cell-based; settings: 125 mg/mL
Description: as §3, §4, §5, §6

[3] = system: Escherichia coli (strain CFT073, TPPS 1041); assay: Initial urinary tract infection model in BALB/c mice, transurethral treatment (Example 9); type: in vivo; settings: 50 mg/kg transurethral 24 hr post-challenge; 60 minutes post-treatment
From the text: Female BALB/c mice (20-22 g) ordered from Envigo are acclimated to housing conditions and handled in accordance with Animal Use Protocol (AUP) number TP-08. Animals are fed irradiated Teklad Global 29 18 Rodent Diet and water ad libitum. Mice are housed 6/cage in static cages with irradiated ⅛″ Teklad corn cobbedding 7902 inside bioBubble® clean rooms that provide H.E.P.A filtered air into the bubble environment at 100 complete air changes per hour. The environment is controlled to a temperature range of 74°±4° F. and a humidity range of 30-70%. All procedures carried out in this experiment are conducted in compliance with the laws, regulations, and guidelines of the National Institutes of Health and with the approval of the TransPharm Preclinical Solutions Animal Care and Use Committee.
A clinical isolate of Escherichia coli (strain CFT073, TPPS 1041) are procured from the University of Michigan.
The organism is grown overnight at 37° C. in ambient atmosphere on trypticase soy agar plates supplemented with 5% sheep blood cells. The culture is aseptically swabbed and transferred to tubes of trypticase soy broth. The optical density is determined at 600 nm. The culture is diluted to provide an inoculum of approximately 7.5 log10 CFU per mouse in a volume of 30 μL. Instillation of the bacterial challenge constituted time 0 hour for the study. Inoculum counts are estimated before inoculation by optical density and confirmed after inoculation by dilution and back counts.
One hour prior to bacterial challenge, water is removed from animal cages. […]
The primary endpoint used to assess progress of the infection is mean bacterial burden per gram of urinary bladder tissue. […] Colony forming units (CFU) are enumerated and the total bacterial burden per gram of urinary bladder tissue homogenate is calculated.
The geometric mean CFU, along with standard error of the mean (SEM), are calculated using Microsoft Excel and bar charts are prepared for the data using GraphPad Prism v. […]

| Compound | pKa (pKa measurement) | MIC (P. aeruginosa; pH 1) [mg/mL] | MIC (P. aeruginosa; pH 3) [mg/mL] | MIC (P. aeruginosa; pH 5) [mg/mL] | MIC (P. aeruginosa; pH 7) [mg/mL] | MIC (E. coli; pH 1) [mg/mL] | MIC (E. coli; pH 3) [mg/mL] | MIC (E. coli; pH 5) [mg/mL] | MIC (E. coli; pH 7) [mg/mL] | effect on cell permeability, cell viability and growth [1] | cell growth [2] | average bladder CFU burden [3] [log10 CFU] |
| --- | --- | --- | --- | --- | --- | --- | --- | --- | --- | --- | --- | --- |
| CCCCOP(=O)(O)OC[C@H]1O[C@@H](n2cc(C)c(=O)[nH]c2=O)C[C@H]1OP(=O)(O)OCCCC [Nu-4] | 2.3 |  |  |  |  |  |  |  |  |  |  |  |
| COC1[C@@H](OP(=O)(O)OCCCCO)[C@@H](COP(=O)(O)OCCCCO)O[C@H]1n1ccc(=O)[nH]c1=O (stereo partly shown) [Nu-2] | 2.3 |  |  |  |  |  |  |  |  |  |  |  |
| CCCCOP(=O)(O)OCCOCCOP(=O)(O)OCCCC [Nu-5] | 2.28 | 6.25 (≈ 16.5 mM) | 100 (≈ 264 mM) | 100 (≈ 264 mM) | 100 (≈ 264 mM) | 6.25 (≈ 16.5 mM) | 100 (≈ 264 mM) | 100 (≈ 264 mM) | 100 (≈ 264 mM) |  |  |  |
| CCCCOP(=O)(O)OC[C@H]1O[C@@H](n2cc(C)c(=O)[nH]c2=O)C[C@@H]1OP(=O)(O)OCCCC [Nu-3] |  | 12.5 (≈ 24.3 mM) | > 100 | > 100 | > 100 | 12.5 (≈ 24.3 mM) | > 100 | > 100 | > 100 | ineffective | slight reduction in cell growth resembling that at pH 4 alone |  |
| gentamicin [reference compound] |  |  |  |  |  |  |  |  |  |  |  | 6.1 |
